{"source": "patent US9879029B2", "about": "“ERK inhibitors” (Eli Lilly and Company, priority 2014, dated 2018)", "tested_on": "ERK substrate (RSK) phosphorylation in HCT116 colorectal cancer cell line", "test": "ERK1/2 cell mechanistic assay (pRSK1 Alphascreen assay)", "format": "cell-based", "conditions": "Homo sapiens, HCT-116, 2 h; HCT116 cells, two hours, Rel IC50; read-out: pRSK1 inhibition IC50", "description": "The purpose of this assay is to measure the ability of compounds to inhibit ERK signaling in cancer cells in vitro. Carry out the pRSK1 Alphascreen assay using the HCT116 colorectal cancer cell line (ATCC, # CCL-247). Routinely culture HCT116 cells in Dulbecco's Modified Eagle's Medium (DMEM) (Hyclone, #SH30022) growth medium containing 5% Fetal Bovine Serum (FBS) (Gibco, #16000-044) in T-150 flasks and incubate in a 5% CO2 incubator at 37° C. Harvest cells when they become confluent and freeze in freezing medium at 1×10e^7 cells/mL as “assay ready frozen cells” and store in liquid nitrogen. To run the assay, plate 40,000 HCT116 cells/well in a 96-well tissue culture plate and incubate at 37° C. in a 5% CO2 incubator overnight. Test compounds at 10 concentrations starting at a 20 μM top concentration and utilize a 1:3 dilution scheme (20 μM to 0.001 μM) with a final DMSO concentration of 0.5% (v/v). Add compounds in 20 μL serum free growth medium and incubate at 37° C. for two hours. Remove growth medium and add 50 μL of 1× lysis buffer [Cell Signaling Technology, #9803] containing 1×holt protease and phosphatase inhibitor cocktail [Thermo, #78441] to each well and incubate at room temperature for 10 minutes on a shaker. […] Measure the fluorescence intensity in each well by reading the plates in ENVISION® (PerkinElmer) plate reader. […]"}
{"smiles": "COCCN1C(=O)c2cc(-c3ccnc(Nc4ccnn4C)c3)sc2C1(C)C", "note": "[Example 1, 5-(2-Methoxyethyl)-6,6-dimethyl-2-{2-[(1-methyl-1H-pyrazol-5-yl)amino]pyridin-4-yl}-5,6-dihydro-4H-thieno[2,3-c]pyrrol-4-one]", "values": [{"measurement": "IC50", "result": 261, "unit": "nM"}]}
